Test results from paper PMC5500990 (European Journal of Medicinal Chemistry, 2017).
“Also recorded” adds a separate entry of the source. *1 amine or outer side, *2 acyl side, *3 side chain or, on linkers, in order; H or OH if unused. Where a SMILES comes first, the peptide text is derived from it. Where no end group is shown, it is not given here. [ ]: non-standard residue; d: D form. X1 = C=CC(C)(C)n1cc(C[C@@H](N[*:1])C(=O)[*:2])c2ccccc21; X3 = CCCCCn1cc(C[C@@H](N[*:1])C(=O)[*:2])c2ccccc21; X4 = CCCn1cc(C[C@@H](N[*:1])C(=O)[*:2])c2ccccc21; dTrp(1-Bu) = CCCCn1cc(C[C@@H](N)C(=O)O)c2ccccc21; X2 = CCn1cc(C[C@@H](N[*:1])C(=O)[*:2])c2ccccc21; dTrp(1-Me) = Cn1cc(C[C@@H](N)C(=O)O)c2ccccc21; dNMeF = CN[C@H](Cc1ccccc1)C(=O)O

Columns and labels:
H69 cells = assay: Cell viability assay using resazurin dye, H69 cells; type: cell-based, human; conditions: for IC50: 48 h; for fold enhancement in cytotoxicity compared to tert-Prenyl^4th-NH2 (2): H69 cell line
Procedure: (§1) Cell viability was evaluated by treating H69 and DMS79 cells with peptides 13–20 in the 0.1–30 μM range for 48 h, with subsequent use of the resazurin dye cell viability assay. IC50 values (Table 1) for all the peptides were derived from the dose response curves (Fig. S24). Table 1 also presents the IC50 values obtained for 1 and 2 previously. RPMI-1640 (with L-glutamine and NaHCO3) was obtained from Sigma-Aldrich. Heat Inactivated Fetal Bovine Serum (FBS) was obtained from Life Technologies. H69 and DMS79 SCLC cell lines were obtained from as previously stated. Cells were grown in 10% v/v FBS/RPMI-1640 (complete medium) and incubated at 37 °C in humidified air atmosphere of 5% CO2. Both, H69 and DMS79 cells are suspension cells and grow in aggregates. For the experimental part, cells were re-suspended in fresh complete medium. Dulbecco's PBS (without calcium chloride and magnesium chloride) and Resazurin sodium salt were obtained from Sigma-Aldrich. The peptide concentrations were calculated accurately using UV/VIS Spectrometer Perkin Elmer instrument and dilution of the stock concentration was made using 50% v/v FBS/sterile saline. Concentrations prepared were ranged from 0.6 to 0.002 mM. Cells were seeded in 96-well plates at a seeding density of 1 × 10^4 cells/190 μl/well in triplicates. Peptides were then added on the same day and incubated as the above conditions stated in Section 5.1. The amount of peptide solution added into each well was 10 μl, resulting in a final well concentration of 30 to 0.1 μM. Untreated control samples were also prepared. Samples for background fluorescence for the resazurin dye were also prepared using only complete medium. After 48 h incubation, resazurin dye (20 μl; 0.125 mg/ml in PBS) was added to each well and incubated as the above conditions stated in Section 5.1 for 5 h. Then, fluorescence readings were recorded using a Tecan Safire plate reader and % viability calculated. Assays were repeated three independent times. Graphs were generated using GraphPad Prism 7.00 software.

DMS79 cells = assay: Cell viability assay using resazurin dye, DMS79 cells; type: cell-based, human; conditions: for IC50: 48 h; for fold reduction in potency/cytotoxicity compared to 16 / fold enhancement in cytotoxicity compared to tert-Prenyl^4th-NH2 (2): DMS79 cell line
Procedure: as §1

[1] = Stability in neat mouse plasma (RP-HPLC); type: in vitro ADME
Source text: When optimising for functional activity there is also a need to assess whether the desired modification will negatively affect the stability of the peptide. Characterisation of the metabolism of peptides is useful to improve their stability in vivo. The finding that a carboxylic acid group, instead of the usual amide, at the C-terminus inactivates the cytotoxicity of 16 (results of 20 - Table 1) may compromise its use in vivo as protein de-amidation reactions are widespread in plasma. Peptides 16 and 19, being the most cytotoxic peptides, were exposed to the conditions of in vitro metabolism in plasma. Peptide 20 lacking the amide group was used as a control. Peptides 16, 19 and 20 were incubated in neat mouse plasma at 37 °C for 48 h. Peptide 2, previously tested over a shorter incubation time, was included for benchmarking purpose.
Peptides were added to neat mouse plasma at a concentration of 400 μg/ml and incubated as the above conditions stated in Section 5.1. Aliquots (20 μl) were taken at 0, 3, 24 and 48 h. To the 20 μl sample, 80 μl of solution B was added and left for 5 min, prior to 1 min sonication to precipitate plasma proteins. The sample was then centrifuged for 5 min at full speed. Then 80 μl of the supernatant was added to 120 μl of solution A and transferred into a HPLC microvial to be analysed using the C8 column. A linear gradient elution was made starting with 100% of solution A and ending after 30 mins with 100% of solution B, with a flow rate of 1 ml/min and followed at λmax 220 nm. The injection volume was 36 μl. Assays were repeated three independent times. HPLC microvials at 0 and 48 h were characterised by ESIMS using the instrument stated in Section 4.1.

[2] = Stability in S9 liver fraction from mouse with cofactors; type: in vitro ADME; conditions: period of 3 h
Procedure: Peptides 16 and 19 were further subjected to the S9 liver fraction from mouse in the presence of cofactors for a period of 3 h. This would give further insight into the stability of the peptides towards Phase I and Phase II metabolising enzymes.
Eppendorf® tubes were used for sample preparations. Chemicals, HPLC microvials, S9 liver fraction (from mouse (CD-1), male, 20 mg/ml protein basis, vial of 1.0 mL) and co-factors: beta-nictoinamide adenine dinucleotide disodium salt hydrate (NADPH), uridine 5’-diphosphoglucuronic acid trisodium salt (UDPGA), L-glutathione (GSH) and adenosine 3’-phosphate 5’-phosphosulfate lithium salt hydrate (PAPS) were obtained from Sigma-Aldrich. RP-HPLC analysis was performed using the instrument, C8 column and solutions (A and B) stated in Section 4.2.
The preparation and analysis of the samples for peptides stability in the S9 liver fraction from mouse was similar to that for the mouse plasma studies, except that addition of cofactors for enzymes activation was required and the aliquots were taken at 0, 1, 2 and 3 h. The cofactors were added to initiate the study as previously described. Briefly, stock concentrations of NADPH (40 mM), UDPGA (20 mM), GSH (2 mM) and PAPS (2 mg/ml) were prepared using Tris buffer (200 mM) (pH 7.4) containing 2 mM magnesium chloride. […]

serine protease = conditions: cited from earlier work
neat mouse plasma = conditions: 37 °C, up to 48 h
[3] = S9 liver fraction (from mouse (CD-1), male, 20 mg/ml protein basis) with cofactors NADPH, UDPGA, GSH and PAPS; conditions: up to 3 h

With `CCCCn1cc(C[C@@H](NC(=O)[C@@H](Cc2ccccc2)NC)C(=O)N[C@@H](Cc2ccccc2)C(=O)N[C@H](Cc2c[nH]c3ccccc23)C(=O)N[C@@H](CC(C)C)C(N)=O)c2ccccc21` [Peptide 18] (H-[dNMeF][dTrp(1-Bu)]F[dW]L-NH2) the IC50 (H69 cells) was 4050 ± 170 nM, the IC50 (DMS79 cells) was 3880 ± 150 nM and the “fold reduction in potency/cytotoxicity compared to 16” value (DMS79 cells) was 3–4 fold.

For `C=CC(C)(C)n1cc(C[C@@H](NC(=O)[C@H](Cc2ccccc2)NC(=O)[C@@H](Cc2c[nH]c3ccccc23)NC(=O)[C@@H](Cc2ccccc2)NC)C(=O)N[C@@H](CC(C)C)C(N)=O)c2ccccc21` [Peptide 2, DMePhe-DTrp-Phe-DTrp(N-tert-prenyl)-Leu-NH2] (H-[dNMeF][dW]F[X1]L-NH2), the “% (± SE) of parent peptide to degradation product(s) in plasma studies” value (“% (± SE) of parent peptide” below) ([1]; 37 °C, 0 hr, n = 3) was 100%, the “% (± SE) of parent peptide” value ([1]; 37 °C, 24 hrs, n = 3, listed as tert-Prenyl^4th-NH2) was roughly 58% and the metabolised at 24 h, 400 μg/ml ([1]; after 24 h exposure, read-out: degraded in plasma) was roughly 42%.

For `CCCCn1cc(C[C@@H](NC(=O)[C@H](Cc2ccccc2)NC(=O)[C@@H](Cc2cn(CCCC)c3ccccc23)NC(=O)[C@@H](Cc2ccccc2)NC)C(=O)N[C@@H](CC(C)C)C(N)=O)c2ccccc21` [Peptide 19] (H-[dNMeF][dTrp(1-Bu)]F[dTrp(1-Bu)]L-NH2), the IC50 (H69 cells) was 630 ± 50 nM, the “fold enhancement in cytotoxicity compared to tert-Prenyl^4th-NH2 (2)” value (“fold enhancement in cytotoxicity” below) (H69 cells) was roughly 4.5 fold and the IC50 (DMS79 cells) was 2310 ± 120 nM. For the same compound, the “fold enhancement in cytotoxicity” value (DMS79 cells) was roughly 2 fold, the “fold reduction in potency/cytotoxicity compared to 16” value (DMS79 cells) was roughly 1.6 fold and the “% (± SE) of parent peptide” value ([1]; 37 °C, 0 hr, n = 3) was 100%. For the same compound, the “% (± SE) of parent peptide” value ([1]; 37 °C, 3 hrs, n = 3) was 98.67 ± 0.69%, the “% (± SE) of parent peptide” value ([1]; 37 °C, 24 hrs, n = 3) was greater than 80% and the “% (± SE) of parent peptide” value ([1]; 37 °C, 24 hrs, n = 3, 1440 min) was 89.73 ± 0.68%. The “% (± SE) of parent peptide” value ([1]; 37 °C, 48 hrs, n = 3) was 81%, the “% (± SE) of parent peptide” value ([1]; 37 °C, 48 hrs, n = 3, 2880 min) was 81.00 ± 2.25% and the “stability in S9 liver fraction (in words)” value [2] was “completely stable”.

In the case of [dR]PKP[dF]Q[dW]F[dW]LL-NH2, the cleaved bond (serine protease) is given as “Leu-NH2, major”.

With `CN[C@H](Cc1ccccc1)C(=O)N[C@H](Cc1c[nH]c2ccccc12)C(=O)N[C@@H](Cc1ccccc1)C(=O)N[C@H](Cc1cn(C)c2ccccc12)C(=O)N[C@@H](CC(C)C)C(N)=O` [Peptide 13] (H-[dNMeF][dW]F[dTrp(1-Me)]L-NH2) the IC50 (H69 cells) was 3980 ± 220 nM, the “times less active than 2” value (H69 cells; H69) was roughly 1.4 times and the IC50 (DMS79 cells) was 4030 ± 310 nM.

In the case of `CCCn1cc(C[C@@H](NC(=O)[C@H](Cc2ccccc2)NC(=O)[C@@H](Cc2c[nH]c3ccccc23)NC(=O)[C@@H](Cc2ccccc2)NC)C(=O)N[C@@H](CC(C)C)C(N)=O)c2ccccc21` [Peptide 15] (H-[dNMeF][dW]F[X4]L-NH2), the IC50 (H69 cells) is reported as 1570 ± 100 nM and the IC50 (DMS79 cells) is reported as 1910 ± 30 nM.

For “DMePhe-DTrp-Phe-DTrp(N-butyl)-Leu-NH2 (H-[dNMeF][dW]F[dTrp(1-Bu)]L-NH2; SMILES CCCCn1cc(C[C@@H](NC(=O)[C@H](Cc2ccccc2)NC(=O)[C@@H](Cc2c[nH]c3ccccc23)NC(=O)[C@@H](Cc2ccccc2)NC)C(=O)N[C@@H](CC(C)C)C(N)=O)c2ccccc21)”, the cleaved bond (neat mouse plasma) was “Leu-NH2, 3 hrs” and the not cleaved [3] was “completely stable in S9 liver fraction (3 h)”.

With “DMePhe-DTrp-Phe-DTrp(N-tert-prenyl)-Leu-NH2 (H-[dNMeF][dW]F[X1]L-NH2; SMILES C=CC(C)(C)n1cc(C[C@@H](NC(=O)[C@H](Cc2ccccc2)NC(=O)[C@@H](Cc2c[nH]c3ccccc23)NC(=O)[C@@H](Cc2ccccc2)NC)C(=O)N[C@@H](CC(C)C)C(N)=O)c2ccccc21)” the cleaved bond (neat mouse plasma) was “Leu-NH2, 3 hrs”.

For `CCCCn1cc(C[C@@H](NC(=O)[C@H](Cc2ccccc2)NC(=O)[C@@H](Cc2c[nH]c3ccccc23)NC(=O)[C@@H](Cc2ccccc2)NC)C(=O)N[C@@H](CC(C)C)C(N)=O)c2ccccc21` [Peptide 16, DMePhe-DTrp-Phe-DTrp(N-butyl)-Leu-NH2] (H-[dNMeF][dW]F[dTrp(1-Bu)]L-NH2), the IC50 (H69 cells) was 1010 ± 20 nM, the “fold enhancement in cytotoxicity” value (H69 cells) was roughly 3 fold and the IC50 (DMS79 cells) was 1430 ± 140 nM. For the same compound, the “fold enhancement in cytotoxicity” value (DMS79 cells) was roughly 3 fold, the “% (± SE) of parent peptide” value ([1]; 37 °C, 0 hr, n = 3) was 100% and the “% (± SE) of parent peptide” value ([1]; 37 °C, 3 hrs, n = 3) was 94.30 ± 0.20%. For the same compound, the “% (± SE) of parent peptide” value ([1]; 37 °C, 24 hrs, n = 3) was greater than 80%, the “% (± SE) of parent peptide” value ([1]; 37 °C, 24 hrs, n = 3, 1440 min) was 80.30 ± 0.32% and the “% (± SE) of parent peptide” value ([1]; 37 °C, 48 hrs, n = 3) was 68.47 ± 0.23%. For the same compound, the “stability in S9 liver fraction (in words)” value [2] was “completely stable”.

For `CCn1cc(C[C@@H](NC(=O)[C@H](Cc2ccccc2)NC(=O)[C@@H](Cc2c[nH]c3ccccc23)NC(=O)[C@@H](Cc2ccccc2)NC)C(=O)N[C@@H](CC(C)C)C(N)=O)c2ccccc21` [Peptide 14] (H-[dNMeF][dW]F[X2]L-NH2), the IC50 (H69 cells) was 1830 ± 30 nM and the IC50 (DMS79 cells) was 1920 ± 30 nM.

`CCCCCn1cc(C[C@@H](NC(=O)[C@H](Cc2ccccc2)NC(=O)[C@@H](Cc2c[nH]c3ccccc23)NC(=O)[C@@H](Cc2ccccc2)NC)C(=O)N[C@@H](CC(C)C)C(N)=O)c2ccccc21` [Peptide 17] (H-[dNMeF][dW]F[X3]L-NH2) showed an IC50 (H69 cells) of 1800 ± 100 nM and an IC50 (DMS79 cells) of 2370 ± 60 nM.

In the case of `CCCCn1cc(C[C@@H](NC(=O)[C@H](Cc2ccccc2)NC(=O)[C@@H](Cc2c[nH]c3ccccc23)NC(=O)[C@@H](Cc2ccccc2)NC)C(=O)N[C@@H](CC(C)C)C(=O)O)c2ccccc21` [Peptide 20] (H-[dNMeF][dW]F[dTrp(1-Bu)]L-OH), the IC50 (H69 cells) is reported as greater than 30000 nM, the IC50 (DMS79 cells) is reported as greater than 30000 nM and the “% (± SE) of parent peptide” value ([1]; 37 °C, 0 hr, n = 3) is reported as 100%. The “% (± SE) of parent peptide” value ([1]; 37 °C, 3 hrs, n = 3) was 100%, the “% (± SE) of parent peptide” value ([1]; 37 °C, 24 hrs, n = 3) was 100% and the “% (± SE) of parent peptide” value ([1]; 37 °C, 48 hrs, n = 3) was 100%. The “degradation in plasma (in words)” value ([1]; 37 °C, up to 48 h, RP-HPLC and MS) was “no sign of degradation; also recorded: complete stability in plasma”.
